Experimental data as given in PubChem BioAssay (NCI).
Values joined by “and” are separate entries in the source; they are usually repeats but may differ in a detail not shown here. Identical values can stand only once.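 Interpolation was linear, between the two tested concentrations surrounding the appropriate level; five concentrations were tested over 48 hours in 96-well plates. Here, GI50 denotes the concentration required for 50% inhibition of growth. TGI denotes the concentration required for complete inhibition of growth.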

Assays:
Experiment in all cases: DTP human tumour cell line panel, 48 h
SF-295 CNS = test system: SF-295 CNS
A549 NSCLC = test system: A549 NSCLC
PC-3 prostate = test system: PC-3 prostate
NCI-H460 lung = test system: NCI-H460 lung
HL-60(TB) leukemia = test system: HL-60(TB) leukemia
RPMI-8226 leukemia = test system: RPMI-8226 leukemia
SNB-75 CNS = test system: SNB-75 CNS
NCI-H522 lung = test system: NCI-H522 lung
BT-549 breast = test system: BT-549 breast
SK-OV-3 ovarian = test system: SK-OV-3 ovarian

SMILES	GI50 (SF-295 CNS)	TGI (SF-295 CNS)	GI50 (A549 NSCLC)	TGI (A549 NSCLC)	GI50 (PC-3 prostate)	TGI (PC-3 prostate)	GI50 (NCI-H460 lung)	TGI (NCI-H460 lung)	GI50 (HL-60(TB) leukemia)	TGI (HL-60(TB) leukemia)	GI50 (RPMI-8226 leukemia)	TGI (RPMI-8226 leukemia)	GI50 (SNB-75 CNS)	TGI (SNB-75 CNS)	GI50 (NCI-H522 lung)	TGI (NCI-H522 lung)	GI50 (BT-549 breast)	TGI (BT-549 breast)	GI50 (SK-OV-3 ovarian) [µM]	TGI (SK-OV-3 ovarian)
N#CC(C#N)N=Nc1ccc(Br)cc1	30.3 µM	> 100 µM	47.9 µM	> 100 µM	2.42 µM	17.7 µM	11.5 µM	> 100 µM	1.7 µM	4.38 µM	1.52 µM	8.03 µM	13.7 µM	> 100 µM	0.543 µM	3.41 µM	4.18 µM	31.5 µM	22.3	> 100 µM
C[C@@H]1Cc2c([nH]c3ccccc23)[C@@H](c2c(F)cc(NC3CN(CCCF)C3)cc2F)N1CC(F)(F)CO	2.25 µM	5.21 µM	9.91 µM	28.7 µM	2.35 µM	9.67 µM	5.19 µM	19.2 µM	4.9 µM	22.5 µM	2.82 µM	14.1 µM	4.92 µM	20.5 µM	4.16 µM	16.7 µM	2.05 µM	4.04 µM	14.4	28.4 µM
CC(=O)O[C@@H]1[C@@H](O)C2=C3[C@]4(C)[C@@H]1C(C)(C)C(=O)C[C@@H]4[C@]3(O)[C@H](OC(C)=O)[C@@]1(C[C@@H]1C)C2=O	–	42.1 µM	–	68.4 µM	–	48.9 µM	–	40.1 µM	–	49.1 µM	–	98.4 µM	–	75.4 µM	–	19.2 µM	–	37 µM	–	52.6 µM
Cc1nc([C@H]2CC[C@H]3[C@@H]4CCC5=CC(=O)CC[C@]5(C)[C@H]4CC[C@]23C)cs1	2.21 µM	> 100 µM	5.25 µM	> 100 µM	3.9 µM	> 100 µM	2.67 µM	> 100 µM	1.53 µM	> 100 µM	0.531 µM	–	> 27 µM	> 100 µM	7.01 µM	> 100 µM	1.97 µM	8.97 µM	> 100	> 100 µM
COc1ccc(/C=C2\CC(C)CC3C2=NN(C(C)=O)C3c2ccc(OC)cc2)cc1 (configuration not stated)	18.2 µM	41.8 µM	25.1 µM	> 100 µM	24.2 µM	> 100 µM	18.5 µM	48.7 µM	13.7 µM	61 µM	10.9 µM	53.2 µM	17.7 µM	53.3 µM	21.5 µM	83.9 µM	23 µM	55.9 µM	28.7	> 100 µM
Cc1nccc2c3ccc(OCc4cn(-c5ccc(Cl)cc5)nn4)cc3n(CCCc3ccccc3)c12	4.81 µM	12.7 µM	2.3 µM	> 33.3 µM	2.42 µM	16.6 µM	2.74 µM	17.9 µM	1.88 µM	8.37 µM	2.45 µM	> 33.3 µM	0.565 µM	1.57 µM	> 33.3 µM	> 33.3 µM	7.35 µM	19.6 µM	> 33.3	> 33.3 µM
CS(=O)(=O)CCNCc1ccc(-c2ccc3ncnc(Nc4ccc(OCc5cccc(F)c5)c(C(F)(F)F)c4)c3c2)o1	4.4 µM	9.43 µM	4.23 µM	9.27 µM	4.86 µM	10.8 µM	4.1 µM	8.51 µM	5.65 µM	13.4 µM	4.79 µM	15.6 µM	3.52 µM	7.77 µM	3.58 µM	7.25 µM	4.9 µM	11.9 µM	3.61	9.86 µM
N#CSc1c[nH]c2ccc(/C=C/C(=O)/C=C(/C=C/c3ccc4[nH]cc(SC#N)c4c3)OB(F)F)cc12	3.47 µM	14.4 µM	3.31 µM	17.6 µM	0.241 µM	1.95 µM	0.763 µM	2.37 µM	0.949 µM	4.18 µM	0.522 µM	–	2.38 µM	11.1 µM	0.212 µM	0.653 µM	0.835 µM	3.43 µM	25.3	88.3 µM
Fc1ccc(-c2ncn(C3CCNCC3)c2-c2ccnc(Oc3ccc(F)c(F)c3)n2)cc1	7.15 µM	> 17.2 µM	9.39 µM	> 19.4 µM	9.05 µM	> 19.9 µM	5.42 µM	13.1 µM	10.6 µM	24.6 µM	12.5 µM	> 23.7 µM	8.64 µM	> 25 µM	5.52 µM	10.5 µM	12.1 µM	> 25 µM	7.54	> 16.4 µM
CC(=O)N1c2ccccc2NC2=C(C(=O)N(Cc3ccccc3)C2(C)C)C1c1ccco1 (configuration not stated)	0.766 µM	> 6.83 µM	1.03 µM	> 25 µM	0.687 µM	> 25 µM	0.145 µM	> 21.2 µM	0.103 µM	0.651 µM	0.758 µM	> 25 µM	0.841 µM	> 5.78 µM	0.871 µM	> 25 µM	8.66 µM	> 25 µM	0.786	> 25 µM
Cc1nc(CN2CCCCC2)c(O)c(=O)[nH]1	–	> 100 µM	–	> 100 µM	–	> 100 µM	–	> 100 µM	–	> 100 µM	–	> 100 µM	–	> 100 µM	–	> 100 µM	–	> 100 µM	–	> 100 µM
CCN(CC)CCCC(C)Nc1nc(C)cc(Nc2ccc3nc(C)cc(N)c3c2)n1 (configuration not stated)	0.0287 µM	28.7 µM	> 100 µM	> 100 µM	12.4 µM	37.8 µM	24.3 µM	62.8 µM	–	–	4.52 µM	23 µM	19.8 µM	> 100 µM	23.9 µM	91.9 µM	19.2 µM	56.7 µM	> 100	> 100 µM
O=[N+]([O-])/C=C/c1cc2ccccc2[nH]1	–	43.9 µM	–	42.7 µM	–	31.7 µM	–	30.4 µM	–	24.3 µM	–	9.85 µM	–	28.6 µM	–	24.2 µM	–	29.5 µM	–	32.8 µM
CS(=O)(=O)Nc1cccc(-c2cc(-c3ccccc3Cl)c(C#N)c(N)n2)c1	0.411 µM	12.9 µM	0.655 µM	16.6 µM	0.531 µM	14.1 µM	0.417 µM	11.5 µM	0.361 µM	13.4 µM	0.702 µM	27.5 µM	0.239 µM	2.44 µM	0.294 µM	3.89 µM	0.532 µM	15.4 µM	0.737	13.8 µM
COc1ccc(C[C@@H]2NC[C@@H](O)[C@@H]2OC(C)=O)cc1	6.7 µM	90 µM	5.54 µM	–	–	0.255 µM	3.43 µM	–	1.72 µM	–	1.79 µM	–	–	0.0692 µM	2.06 µM	–	–	0.145 µM	–	–
CCn1cc(-c2ccnc3[nH]ccc23)c(-c2cccc(NC(=O)Nc3ccc(OCc4ccccc4)cc3)c2)n1	4.55 µM	> 25 µM	2.85 µM	> 25 µM	10.6 µM	> 25 µM	7.45 µM	> 25 µM	4.23 µM	17.2 µM	4.19 µM	> 25 µM	4.35 µM	> 25 µM	2.98 µM	> 25 µM	> 21.9 µM	> 25 µM	> 22.4	> 25 µM
CN1C(=O)[C@@H](NC(=O)[C@H](CCC(F)(F)F)[C@H](CCC(F)(F)F)C(N)=O)N=C(c2ccccc2)c2ccccc21	58.4 µM	> 100 µM	66.7 µM	> 100 µM	55.7 µM	> 100 µM	83.4 µM	> 100 µM	62.6 µM	> 100 µM	58.7 µM	> 100 µM	32.6 µM	> 100 µM	85.2 µM	> 100 µM	88.8 µM	> 100 µM	> 100	> 100 µM
S=C(Nc1ccc(Cl)cc1)Nc1ccc(-c2nc3ccccc3o2)cc1	13.7 µM	42.8 µM	24.3 µM	92.6 µM	15.4 µM	51.4 µM	17.4 µM	58.3 µM	32.2 µM	> 100 µM	3.8 µM	23.2 µM	37.7 µM	72.2 µM	11 µM	26.7 µM	22.2 µM	60.7 µM	32.3	> 100 µM
COc1cc2c(cc1OC)C(OC)N(C)c1c-2ccc2cc3c(cc12)OCO3 (configuration not stated)	–	> 75 µM	–	–	–	> 75 µM	–	3.58 µM	–	> 36.9 µM	–	13.4 µM	–	5.53 µM	–	0.766 µM	–	> 75 µM	–	2.53 µM
Nc1ncnc2c1c(-c1cccc(OCc3ccccc3)c1)cn2C1CC(CN2CCC2)C1 (configuration not stated)	1.89 µM and 2.36 µM	3.93 µM and 5.63 µM	1.01 µM and 2.91 µM	7.55 µM and > 10 µM	2.94 µM and 5.42 µM	13.9 µM and > 10 µM	2.41 µM and 2.87 µM	15.4 µM and > 10 µM	0.112 µM and 0.0969 µM	2.08 µM and 2.04 µM	1.9 µM and 2.18 µM	5.41 µM and 5.31 µM	1.7 µM and 2.29 µM	4.86 µM and 8.46 µM	2.18 µM and 7.48 µM	5.92 µM and > 10 µM	2.57 µM and 5.84 µM	6.91 µM and > 10 µM	3.99	11.3 µM and > 10 µM
COC(=O)c1c(O)c([N+](=O)[O-])cc2c1c1c(n2Cc2ccccc2)C(=O)c2ccccc2C1=O	52.1 µM	> 100 µM	20.4 µM	> 100 µM	15.4 µM	53.9 µM	4.94 µM	27.3 µM	25.7 µM	> 100 µM	2.32 µM	24.9 µM	> 100 µM	> 100 µM	23.3 µM	65.6 µM	5.9 µM	51.5 µM	> 100	> 100 µM
CN(C)c1ncc(-c2ccc(C(F)(F)F)cc2)c(NC2CCCCCC2)n1	17.5 µM	37.4 µM	18.2 µM	57.1 µM	20.2 µM	87.1 µM	16.2 µM	35.9 µM	15 µM	34 µM	6.51 µM	24.4 µM	20.6 µM	93.8 µM	11.2 µM	30.2 µM	20.4 µM	44.4 µM	29	95.4 µM
CC#C/C(=N\OC[C@H]1COCCN1)c1ccc2ncnc(Nc3ccc(OCc4cccc(F)c4)c(Cl)c3)c2c1	1.72 µM	3.26 µM	1.64 µM	9.85 µM	1.81 µM	3.98 µM	–	–	2.04 µM	4.57 µM	1.66 µM	3.81 µM	1.46 µM	2.82 µM	0.393 µM	2.25 µM	6.06 µM	20.5 µM	0.0176	1.35 µM
COc1ccc(-c2nc(C(=O)c3ccccc3)n(CC(=O)c3ccccc3)c2-c2ccc(OC)cc2)cc1	> 100 µM	> 100 µM	> 100 µM	> 100 µM	> 100 µM	> 100 µM	> 100 µM	> 100 µM	> 100 µM	> 100 µM	> 100 µM	> 100 µM	> 100 µM	> 100 µM	> 100 µM	> 100 µM	> 100 µM	> 100 µM	> 100	> 100 µM
O=C(O)c1cc2ccccc2oc1=O	–	> 100 µM	–	> 100 µM	–	> 100 µM	–	> 100 µM	–	> 100 µM	–	> 100 µM	–	> 100 µM	–	> 100 µM	–	> 100 µM	–	–
CCCCCCCCCc1cc[n+](CC(=O)c2ccc([N+](=O)[O-])cc2)cc1	1.44 µM	2.79 µM	1.64 µM	3.13 µM	0.552 µM	1.88 µM	1.53 µM	3.08 µM	1.7 µM	3.64 µM	0.439 µM	2.15 µM	1.12 µM	2.36 µM	1.36 µM	2.87 µM	1.27 µM	2.72 µM	1.66	3.18 µM
